The text below walks through data of ChEMBL document CHEMBL5143510, “Structure modification and biological evaluation of indole-chalcone derivatives as anti-tumor agents through dual targeting tubulin and TrxR” (Eur J Med Chem, 2022).

In one assay the test system is MCF7. Nature of the assay: Antiproliferative activity against human MCF7 cells assessed as reduction in cell viability incubated for 48 hrs by MTT assay. The class given is functional, cell-based. The following applies: MCF7, 48 h.
The subject of the next assay is A2780. Nature of the assay: Antiproliferative activity against human A2780 cells assessed as reduction in cell viability incubated for 48 hrs by MTT assay. In kind it is functional, cell-based. The following applies: A2780, 48 h.
In a further assay the test system is A549. In words: Antiproliferative activity against human A549 cells assessed as reduction in cell viability incubated for 48 hrs by MTT assay. In kind it is functional, cell-based. The following applies: A549, 48 h.
The next assay deals with HeLa. In words: Antiproliferative activity against human HeLa cells assessed as reduction in cell viability incubated for 48 hrs by MTT assay. The class given is functional, cell-based.
The subject of assay [1] is MHCC97H. In words: Antiproliferative activity against human MHCC97H cells assessed as reduction in cell viability incubated for 48 hrs by MTT assay. In kind it is functional, cell-based.
The test system of a further assay is HCT-8. Nature of the assay: Antiproliferative activity against human HCT-8 cells assessed as reduction in cell viability incubated for 48 hrs by MTT assay. The class given is functional, cell-based. The following applies: HCT-8, 48 h.
Assay [2] is described as follows: Inhibition of TrxR (unknown origin) using DTNB as substrate incubated for 5 mins in presence of NADPH followed by substrate addition by microplate reader analysis. Also on record: species or system Homo sapiens.
Assay [3] can be described thus: Inhibition of TrxR in human MHCC97H cells using DTNB as substrate preincubated for 24 hrs in presence of NADPH followed by substrate addition by microplate reader analysis. In kind it is cell-based.
The test system of another assay is NCI/ADR-RES. Nature of the assay: Antiproliferative activity against adriamycin resistant human MCF7/ADR cells assessed as reduction in cell viability incubated for 48 hrs by MTT assay. In kind it is functional, cell-based.
Assay [4] relates to MHCC97H. In words: Antitumor activity against human MHCC97H cells xenografted in BALB/c mouse assessed as tumor growth inhibition at 30 mg/kg, ip administered every other day for 30 days. The class given is functional. The following applies: 720 h, time 30 day, read-out: TGI.
The test system of assay [5] is MHCC97H. Nature of the assay: Antitumor activity against human MHCC97H cells xenografted in BALB/c mouse assessed as tumor weight at 30 mg/kg, ip administered every other day for 30 days. In kind it is functional. The following applies: time 30 day.
For assay [6], the system named is MHCC97H. Nature of the assay: Antitumor activity against human MHCC97H cells xenografted in BALB/c mouse assessed as tumor volume at 30 mg/kg, ip administered every other day for 30 days. In kind it is functional. The following applies: time 30 day.
Assay [7] in a line: Antiproliferative activity against paclitaxel resistant human A2780/PTX cells assessed as reduction in cell viability incubated for 48 hrs by MTT assay. In kind it is functional, cell-based.
Assay [8] can be described thus: Resistance index, ratio of IC50 for antiproliferative activity against paclitaxel resistant human A2780/PTX cells to IC50 for antiproliferative activity against human A2780 cells. In kind it is functional.
The nature of assay [9]: Antiproliferative activity against vincristine resistant human HCT-8/VCR cells assessed as reduction in cell viability incubated for 48 hrs by MTT assay. The class given is functional, cell-based.
A short description of assay [10]: Resistance index, ratio of IC50 for antiproliferative activity against vincristine resistant human HCT-8/VCR cells to IC50 for antiproliferative activity against human HCT-8 cells. In kind it is functional.

Structures can show the parent of a compound that is named as a salt.

In the case of `COc1cc(C(=O)/C=C/c2cn(C)c3ccccc23)cc(N)c1OC`, the IC50 in the assay on MCF7 was found to be 631 nM; with A2780, 441 nM; with A549, 498 nM; in the assay with HeLa, 668 nM; in the assay with MHCC97H [1], 289 nM; in the assay on HCT-8, 605 nM.

Take `COc1cc(C(=O)/C=C/c2c[nH]c3ccccc23)cc(N)c1OC`: the IC50 came to 595 nM in the assay on MCF7; 351 nM in the assay on A2780; 342 nM in the assay on A549; 529 nM in the assay on HeLa; 263 nM in the assay on MHCC97H [1]; 577 nM in the assay on HCT-8.

As to `COc1cc(C(=O)/C(C)=C/c2c[nH]c3ccccc23)cc([Se]C)c1OC`, the IC50 in the assay with MCF7 turned out to be 59 nM; in the assay on A2780 it was 25 nM; in the assay with A549, 12 nM; in the assay with HeLa, 34 nM; with MHCC97H [1], 18 nM; in the assay on HCT-8 it was 32 nM.

With `COc1cc(C(=O)/C=C/c2c[nH]c3ccccc23)cc(SC)c1OC`, the IC50 was determined as 186 nM with MCF7; 169 nM in the assay on A2780; 152 nM in the assay on A549; 159 nM with HeLa; 131 nM in the assay on MHCC97H [1]; 167 nM in the assay on HCT-8.

As to `COc1ccc2c(/C=C(\C)C(=O)c3cc(OC)c(OC)c([Se]C)c3)cn(C)c2c1`, the IC50 in the assay with MCF7 was 44 nM; with A2780 it was 26 nM; in the assay on A549, 15 nM; in the assay on HeLa, 32 nM; in the assay with MHCC97H [1], 15 nM; with HCT-8 it was 25 nM.

Take `COc1cc(/C=C/C(=O)CC(=O)/C=C/c2ccc(O)c(OC)c2)ccc1O` [CURCUMIN]: the IC50 worked out at 29000 nM in assay [2] and 28800 nM in assay [3].

`COc1ccc2c(/C=C/C(=O)c3cc(OC)c(OC)c([N+](=O)[O-])c3)cn(C)c2c1`: the IC50 came out at 1520 nM in the assay on MCF7; 952 nM in the assay on A2780; 1020 nM in the assay on A549; 951 nM with HeLa; 562 nM in the assay with MHCC97H [1]; 753 nM with HCT-8.

`COc1cccc2c1C(=O)c1c(O)c3c(c(O)c1C2=O)C[C@@](O)(C(=O)CO)C[C@@H]3O[C@H]1C[C@H](N)[C@H](O)[C@H](C)O1` [DOXORUBICIN HYDROCHLORIDE]: the IC50 in the assay on NCI/ADR-RES was 232000 nM.

For the compound `COc1ccc2c(/C=C/C(=O)c3cc(N)c(OC)c(OC)c3)c[nH]c2c1`, the IC50 stood at 249 nM in the assay on MCF7; 204 nM with A2780; 193 nM with A549; 155 nM in the assay on HeLa; 186 nM in the assay on MHCC97H [1]; 368 nM in the assay on HCT-8.

Take `COc1cc(C(=O)/C=C/c2c[nH]c3ccccc23)cc([N+](=O)[O-])c1OC`: the IC50 turned out to be 1290 nM with MCF7; 1280 nM in the assay on A2780; 1510 nM in the assay with A549; 1350 nM in the assay with HeLa; 830 nM in the assay with MHCC97H [1]; 1390 nM in the assay with HCT-8.

As to `COc1ccc(/C=C\c2cc(OC)c(OC)c(OC)c2)cc1O` [COMBRETASTATIN A4], the IC50 in the assay on MCF7 turned out to be 29 nM; with HeLa it was 16 nM; with MHCC97H [1], 8 nM; in the assay on HCT-8, 23 nM.

For `COc1cc(C(=O)/C=C/c2cn(C)c3ccccc23)cc([N+](=O)[O-])c1OC`, the IC50 amounted to 1770 nM with MCF7; 1890 nM in the assay with A2780; 1060 nM in the assay with A549; 1960 nM with HeLa; 850 nM with MHCC97H [1]; 1660 nM in the assay on HCT-8.

For `COc1ccc2c(/C=C/C(=O)c3cc(OC)c(OC)c([N+](=O)[O-])c3)c[nH]c2c1`, the IC50 in the assay on MCF7 came out at 662 nM; in the assay with A2780, 742 nM; with A549, 331 nM; with HeLa it was 850 nM; with MHCC97H [1] it was 289 nM; with HCT-8 it was 982 nM.

Take `COc1ccc2c(/C=C/C(=O)c3cc(OC)c(OC)c(SC)c3)c[nH]c2c1`: the IC50 was 101 nM in the assay on MCF7; 139 nM in the assay with A2780; 115 nM in the assay on A549; 131 nM in the assay with HeLa; 112 nM in the assay on MHCC97H [1]; 138 nM in the assay on HCT-8.

As for `COc1ccc2c(/C=C/C(=O)c3cc(N)c(OC)c(OC)c3)cn(C)c2c1`, the IC50 was found to be 505 nM with MCF7; 156 nM in the assay with A2780; 106 nM in the assay on A549; 356 nM in the assay on HeLa; 198 nM in the assay with MHCC97H [1]; 455 nM in the assay on HCT-8.

Take `COc1ccc2c(/C=C/C(=O)c3cc(OC)c(OC)c([Se]C)c3)c[nH]c2c1`: the IC50 in the assay on MCF7 stood at 83 nM; in the assay on A2780 it was 65 nM; in the assay with A549, 67 nM; with HeLa, 104 nM; in the assay on MHCC97H [1], 58 nM; with HCT-8, 78 nM.

As for `COc1ccc(/C=C\c2cc(OC)c(OC)c(OC)c2)cc1OP(=O)(O)O` [FOSBRETABULIN], the inhibition in vivo at 30 mg/kg in the assay on MHCC97H [4] came out at 39.2%. Besides, the Activity is on record as 0.888 g in the assay with MHCC97H [5] and 1031.1 mm3 with MHCC97H [6].

For `CC(=O)O[C@H]1C(=O)[C@@]2(C)[C@H]([C@H](OC(=O)c3ccccc3)[C@]3(O)C[C@H](OC(=O)[C@H](O)[C@@H](NC(=O)c4ccccc4)c4ccccc4)C(C)=C1C3(C)C)[C@]1(OC(C)=O)CO[C@@H]1C[C@@H]2O` [PACLITAXEL], the figures for the IC50 (in the assay with A2780; in assay [7]) were 21 nM and 344 nM, respectively. For the same compound, the “Ratio IC50” value in assay [8] stood at 16.4.

Turning to `COc1cc(C(=O)/C(C)=C/c2cn(C)c3ccccc23)cc([Se]C)c1OC`, the IC50 in the assay with MCF7 is 77 nM; in the assay on A2780, 35 nM; in the assay with A549 it was 18 nM; in the assay on HeLa, 63 nM; in the assay on MHCC97H [1], 26 nM; in the assay on HCT-8, 48 nM.

On to `CC[C@]1(O)C[C@H]2CN(CCc3c([nH]c4ccccc34)[C@@](C(=O)OC)(c3cc4c(cc3OC)N(C=O)[C@H]3[C@@](O)(C(=O)OC)[C@H](OC(C)=O)[C@]5(CC)C=CCN6CC[C@]43[C@@H]65)C2)C1` [VINCRISTINE], for which the IC50 in the assay on HCT-8 stood at 217 nM; in assay [9] it was 10200 nM. The “Ratio IC50” value in [10] stood at 47.

As for `COc1cc(C(=O)/C=C/c2cn(C)c3ccccc23)cc(SC)c1OC`, the IC50 in the assay on MCF7 was found to be 102 nM; in the assay with A2780, 193 nM; in the assay on A549 it was 188 nM; in the assay on HeLa, 105 nM; in the assay with MHCC97H [1], 150 nM; in the assay on HCT-8, 210 nM.

In the case of `COc1ccc2c(/C=C/C(=O)c3cc(OC)c(OC)c(SC)c3)cn(C)c2c1`, the IC50 in the assay with MCF7 came out at 166 nM; in the assay with A2780, 145 nM; in the assay on A549, 156 nM; with HeLa it was 167 nM; with MHCC97H [1], 122 nM; in the assay with HCT-8 it was 157 nM.

As to `O=c1c2ccccc2[se]n1CCn1[se]c2ccccc2c1=O`, the inhibition in vivo at 30 mg/kg with MHCC97H [4] amounted to 51.7%. The Activity came to 1.119 g with MHCC97H [5] and 832.6 mm3 in the assay on MHCC97H [6].
